Experimental data as given in publication PMC7979765, “trans-Translation inhibitors bind to a novel site on the ribosome and clear Neisseria gonorrhoeae in vivo” (Nature Communications, 2021).
In brackets after ≈: the same amount, converted by molar mass. Read-outs that look alike come from different tables or passages of the source.

Key:
[1] = Liver microsome stability, murine; format: in vitro ADME, mouse
How it was run: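 Compounds incubated with liver microsomes plus NADPH over 30 min; parent remaining quantified by reverse-phase LC/MS. Half-life from linear regression over several time points.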

[2] = test system: Pseudomonas aeruginosa; assay: MIC, microbroth dilution; format: cell-based
[3] = test system: Neisseria gonorrhoeae; assay: MIC, microbroth dilution, G77L medium; format: cell-based

In the case of O=C(Nc1nnc(-c2ccc(F)cc2)o1)N1CCc2ccccc2C1 [MBX-4132], the “Microsomal stability (t½, min) Murine” value ([1]; Reported value, Eurofins) is reported as over 120 min, the half-life ([1]; mouse, murine liver microsomes, read-out: MMS / Microsomal Stability (t1/2), murine) is reported as over 2 h and the “Average MLMS t½” value ([1]; murine liver microsomes, average of replicates) is reported as over 2 h. For the same compound, the “MLMS t½” value ([1]; murine liver microsomes, individual replicates) was over 2 h, the MIC ([2]; Pseudomonas aeruginosa ATCC 27853, replicates) was at least 34 mg/L and the MIC ([2]; Pseudomonas aeruginosa, ATCC27853, Pseudomonas aeruginosa ATCC 27853, replicates, read-out: MIC) was at least 34 mg/L. The MIC ([2]; Pseudomonas aeruginosa, ATCC27853, strain ATCC 27853, read-out: MIC) was at least 34 mg/L, the MIC ([3]; Neisseria gonorrhoeae ATCC 49226, source data, individual replicates) was 0.08459 mg/L (≈ 0.25 µM) and the MIC ([3]; Neisseria gonorrhoeae, ATCC49226, Neisseria gonorrhoeae ATCC 49226, source data, individual replicates) was 0.169 mg/L (≈ 0.5 µM). The MIC ([3]; Neisseria gonorrhoeae, ATCC49226, read-out: MIC GEOMEAN, strain ATCC 49226, geomean of replicates) was 0.134 mg/L (≈ 0.396 µM), the MIC ([3]; Neisseria gonorrhoeae, ATCC49226, strain ATCC 49226, replicates 1-3) was 0.169 mg/L (≈ 0.499 µM) and the MIC ([3]; Neisseria gonorrhoeae, ATCC49226, strain ATCC 49226, type strain) was 0.13 mg/L (≈ 0.384 µM). For the same compound, the MIC ([3]; Neisseria gonorrhoeae, ATCC49226, strain MMX ATCC 49226, broth dilution by Micromyx) was 0.27 mg/L (≈ 0.798 µM), the MIC ([3]; Neisseria gonorrhoeae, ATCC700719, read-out: MIC GEOMEAN, strain ATCC 700719, geomean of replicates) was 0.213 mg/L (≈ 0.63 µM) and the MIC ([3]; Neisseria gonorrhoeae, ATCC700719, strain ATCC 700719, SPT) was 0.21 mg/L (≈ 0.621 µM). For the same compound, the MIC ([3]; Neisseria gonorrhoeae, ATCC700719, strain ATCC 700719, replicates 1-3) was 0.169 mg/L (≈ 0.499 µM), the MIC ([3]; Neisseria gonorrhoeae, ATCC700825, read-out: MIC GEOMEAN, strain ATCC 700825, geomean of replicates) was 0.042 mg/L (≈ 0.124 µM) and the MIC ([3]; Neisseria gonorrhoeae, ATCC700825, strain ATCC 700825, STR) was 0.04 mg/L (≈ 0.118 µM). It also gave an MIC ([3]; Neisseria gonorrhoeae, ATCC700825, strain ATCC 700825, replicates 1-3) of 0.042 mg/L (≈ 0.124 µM), an MIC ([3]; Neisseria gonorrhoeae, BAA1846, read-out: MIC GEOMEAN, strain BAA-1846, geomean of replicates) of 0.042 mg/L (≈ 0.124 µM) and an MIC ([3]; Neisseria gonorrhoeae, BAA1846, strain BAA-1846, TET) of 0.04 mg/L (≈ 0.118 µM). The MIC ([3]; Neisseria gonorrhoeae, BAA1846, strain BAA-1846, replicates 1-3) was 0.042 mg/L (≈ 0.124 µM), the MIC90 ([3]; Neisseria gonorrhoeae, read-out: MIC90 (n)) was 0.53 mg/L (≈ 1.57 µM) and the MIC ([3]; Neisseria gonorrhoeae, read-out: MIC GEOMEAN, strain CDC-0165, geomean of replicates) was 0.677 mg/L (≈ 2 µM). For the same compound, the MIC ([3]; Neisseria gonorrhoeae, read-out: MIC GEOMEAN, strain CDC-0166, geomean of replicates) was 0.169 mg/L (≈ 0.499 µM), the MIC ([3]; Neisseria gonorrhoeae, read-out: MIC GEOMEAN, strain CDC-0167, geomean of replicates) was 0.134 mg/L (≈ 0.396 µM) and the MIC ([3]; Neisseria gonorrhoeae, read-out: MIC GEOMEAN, strain CDC-0169, geomean of replicates) was 0.169 mg/L (≈ 0.499 µM). For the same compound, the MIC ([3]; Neisseria gonorrhoeae, read-out: MIC GEOMEAN, strain CDC-0170, geomean of replicates) was 0.169 mg/L (≈ 0.499 µM), the MIC ([3]; Neisseria gonorrhoeae, read-out: MIC GEOMEAN, strain CDC-0171, geomean of replicates) was 0.169 mg/L (≈ 0.499 µM) and the MIC ([3]; Neisseria gonorrhoeae, read-out: MIC GEOMEAN, strain CDC-0172, geomean of replicates) was 0.169 mg/L (≈ 0.499 µM). It also gave an MIC ([3]; Neisseria gonorrhoeae, read-out: MIC GEOMEAN, strain CDC-0173, geomean of replicates) of 0.169 mg/L (≈ 0.499 µM), an MIC ([3]; Neisseria gonorrhoeae, read-out: MIC GEOMEAN, strain CDC-0174, geomean of replicates) of 0.169 mg/L (≈ 0.499 µM) and an MIC ([3]; Neisseria gonorrhoeae, read-out: MIC GEOMEAN, strain CDC-0175, geomean of replicates) of 0.085 mg/L (≈ 0.251 µM). It also gave an MIC ([3]; Neisseria gonorrhoeae, read-out: MIC GEOMEAN, strain CDC-0176, geomean of replicates) of 0.338 mg/L (≈ 0.999 µM), an MIC ([3]; Neisseria gonorrhoeae, read-out: MIC GEOMEAN, strain CDC-0177, geomean of replicates) of 0.169 mg/L (≈ 0.499 µM) and an MIC ([3]; Neisseria gonorrhoeae, read-out: MIC GEOMEAN, strain CDC-0178, geomean of replicates) of 0.338 mg/L (≈ 0.999 µM). For the same compound, the MIC ([3]; Neisseria gonorrhoeae, read-out: MIC GEOMEAN, strain CDC-0179, geomean of replicates) was 0.085 mg/L (≈ 0.251 µM), the MIC ([3]; Neisseria gonorrhoeae, read-out: MIC GEOMEAN, strain CDC-0180, geomean of replicates) was 0.169 mg/L (≈ 0.499 µM) and the MIC ([3]; Neisseria gonorrhoeae, read-out: MIC GEOMEAN, strain CDC-0181, geomean of replicates) was 0.169 mg/L (≈ 0.499 µM). The MIC ([3]; Neisseria gonorrhoeae, read-out: MIC GEOMEAN, strain CDC-0182, geomean of replicates) was 0.169 mg/L (≈ 0.499 µM), the MIC ([3]; Neisseria gonorrhoeae, read-out: MIC GEOMEAN, strain CDC-0183, geomean of replicates) was 0.338 mg/L (≈ 0.999 µM) and the MIC ([3]; Neisseria gonorrhoeae, read-out: MIC GEOMEAN, strain CDC-0184, geomean of replicates) was 0.169 mg/L (≈ 0.499 µM). It also gave an MIC ([3]; Neisseria gonorrhoeae, read-out: MIC GEOMEAN, strain CDC-0185, geomean of replicates) of 0.269 mg/L (≈ 0.795 µM), an MIC ([3]; Neisseria gonorrhoeae, read-out: MIC GEOMEAN, strain CDC-0186, geomean of replicates) of 0.169 mg/L (≈ 0.499 µM) and an MIC ([3]; Neisseria gonorrhoeae, read-out: MIC GEOMEAN, strain CDC-0187, geomean of replicates) of 0.338 mg/L (≈ 0.999 µM). It also gave an MIC ([3]; Neisseria gonorrhoeae, read-out: MIC GEOMEAN, strain CDC-0188, geomean of replicates) of 0.169 mg/L (≈ 0.499 µM), an MIC ([3]; Neisseria gonorrhoeae, read-out: MIC GEOMEAN, strain CDC-0189, geomean of replicates) of 0.134 mg/L (≈ 0.396 µM) and an MIC ([3]; Neisseria gonorrhoeae, read-out: MIC GEOMEAN, strain CDC-0190, geomean of replicates) of 0.169 mg/L (≈ 0.499 µM). The MIC ([3]; Neisseria gonorrhoeae, read-out: MIC GEOMEAN, strain HO41, geomean of replicates) was 0.169 mg/L (≈ 0.499 µM), the MIC ([3]; Neisseria gonorrhoeae, read-out: MIC GEOMEAN, strain WHO F, geomean of replicates) was 0.066 mg/L (≈ 0.195 µM) and the MIC ([3]; Neisseria gonorrhoeae, read-out: MIC GEOMEAN, strain WHO G, geomean of replicates) was 0.132 mg/L (≈ 0.39 µM). It also gave an MIC ([3]; Neisseria gonorrhoeae, read-out: MIC GEOMEAN, strain WHO K, geomean of replicates) of 0.264 mg/L (≈ 0.78 µM), an MIC ([3]; Neisseria gonorrhoeae, read-out: MIC GEOMEAN, strain WHO L, geomean of replicates) of 0.264 mg/L (≈ 0.78 µM) and an MIC ([3]; Neisseria gonorrhoeae, read-out: MIC GEOMEAN, strain WHO M, geomean of replicates) of 0.132 mg/L (≈ 0.39 µM).
